Laboratory results taken from doi:10.1101/2024.12.09.627639v1 (biorxiv, 2024).

Target: FFA1 (GPR40) (Homo sapiens, UniProt O14842)
Assay: aequorin calcium luminescence assay, CHO cells
Type: cell-based

FFA1 (GPR40), sequence (O14842 whole entry): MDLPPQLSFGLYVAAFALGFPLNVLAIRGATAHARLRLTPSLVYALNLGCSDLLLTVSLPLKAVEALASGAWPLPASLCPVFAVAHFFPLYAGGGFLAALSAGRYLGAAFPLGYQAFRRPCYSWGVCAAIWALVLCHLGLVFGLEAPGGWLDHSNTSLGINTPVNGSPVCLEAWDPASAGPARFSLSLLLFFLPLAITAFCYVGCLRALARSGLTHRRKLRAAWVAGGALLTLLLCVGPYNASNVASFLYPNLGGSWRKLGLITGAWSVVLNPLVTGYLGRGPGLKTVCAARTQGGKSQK

- EC50: 40 µM
Structure (SMILES): CC/C=C\C/C=C\C/C=C\C/C=C\C/C=C\C/C=C\CCC(=O)O [DHA]
